Source: US11739078B2, “Methods of inhibiting kinases” (INSILICO MEDICINE IP LIMITED, priority 2019, dated 2023)
Where two headings read alike, the source gives them in different places.

Legend:
[1] = molecular target: TNIK (Homo sapiens (Human), UniProt Q9UKE5); test: TNIK enzymatic assay (radiometric kinase inhibition); type: biochemical
Protocol: The compounds were studied for function as TNIK inhibitors to generate the data of Table 1. […] (specific activity and concentration as required). The reaction is initiated by the addition of the Mg/ATP mix. After incubation for 40 minutes at room temperature, the reaction is stopped by the addition of phosphoric acid to a concentration of 0.5%.

[2] = molecular target: MAP4K4 (h) (Homo sapiens (Human), UniProt O95819); test: MAP4K4 in vitro kinase assay (radiometric); type: biochemical; conditions: read-out: MAP4K4_IC50
Protocol: (specific activity and concentration as required). The reaction is initiated by the addition of the Mg/ATP mix. After incubation for 40 minutes at room temperature, the reaction is stopped by the addition of phosphoric acid to a concentration of 0.5%.

[3] = TNIK enzymatic assay, Table 1, read-out: IC50

Chain of MAP4K4 (h) (O95819 whole entry): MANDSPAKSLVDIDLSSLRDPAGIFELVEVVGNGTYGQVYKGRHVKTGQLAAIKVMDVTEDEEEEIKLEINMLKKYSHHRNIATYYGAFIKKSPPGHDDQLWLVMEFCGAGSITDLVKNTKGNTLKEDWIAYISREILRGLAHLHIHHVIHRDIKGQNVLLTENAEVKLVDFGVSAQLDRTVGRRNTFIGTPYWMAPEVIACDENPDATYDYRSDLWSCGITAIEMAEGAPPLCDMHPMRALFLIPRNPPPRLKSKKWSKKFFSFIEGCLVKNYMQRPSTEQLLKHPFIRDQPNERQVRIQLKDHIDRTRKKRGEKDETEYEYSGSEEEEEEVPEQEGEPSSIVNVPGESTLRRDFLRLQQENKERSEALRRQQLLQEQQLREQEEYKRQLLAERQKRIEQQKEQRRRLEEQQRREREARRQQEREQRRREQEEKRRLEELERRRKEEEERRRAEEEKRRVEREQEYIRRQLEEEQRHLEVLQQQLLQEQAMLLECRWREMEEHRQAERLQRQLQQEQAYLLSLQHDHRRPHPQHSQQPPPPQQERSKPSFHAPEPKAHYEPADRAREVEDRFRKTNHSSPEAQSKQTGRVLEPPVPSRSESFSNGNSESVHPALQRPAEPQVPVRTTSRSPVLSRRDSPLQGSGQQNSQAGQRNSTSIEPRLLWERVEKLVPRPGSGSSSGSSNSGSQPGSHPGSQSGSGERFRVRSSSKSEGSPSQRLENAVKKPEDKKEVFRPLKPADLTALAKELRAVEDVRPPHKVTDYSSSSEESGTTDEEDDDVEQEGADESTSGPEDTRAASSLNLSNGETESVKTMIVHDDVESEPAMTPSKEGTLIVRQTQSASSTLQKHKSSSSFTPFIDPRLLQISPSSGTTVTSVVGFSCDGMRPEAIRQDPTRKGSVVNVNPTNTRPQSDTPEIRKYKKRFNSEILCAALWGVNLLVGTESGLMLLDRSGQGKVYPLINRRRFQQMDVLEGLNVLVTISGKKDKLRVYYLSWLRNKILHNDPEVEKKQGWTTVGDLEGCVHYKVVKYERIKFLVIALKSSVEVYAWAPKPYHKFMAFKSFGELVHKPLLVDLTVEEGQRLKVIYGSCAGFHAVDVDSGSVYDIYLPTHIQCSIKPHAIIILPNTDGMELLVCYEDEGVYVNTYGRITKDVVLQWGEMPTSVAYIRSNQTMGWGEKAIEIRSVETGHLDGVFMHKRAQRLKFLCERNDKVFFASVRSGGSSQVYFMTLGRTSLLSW
Chain of TNIK (Q9UKE5 whole entry): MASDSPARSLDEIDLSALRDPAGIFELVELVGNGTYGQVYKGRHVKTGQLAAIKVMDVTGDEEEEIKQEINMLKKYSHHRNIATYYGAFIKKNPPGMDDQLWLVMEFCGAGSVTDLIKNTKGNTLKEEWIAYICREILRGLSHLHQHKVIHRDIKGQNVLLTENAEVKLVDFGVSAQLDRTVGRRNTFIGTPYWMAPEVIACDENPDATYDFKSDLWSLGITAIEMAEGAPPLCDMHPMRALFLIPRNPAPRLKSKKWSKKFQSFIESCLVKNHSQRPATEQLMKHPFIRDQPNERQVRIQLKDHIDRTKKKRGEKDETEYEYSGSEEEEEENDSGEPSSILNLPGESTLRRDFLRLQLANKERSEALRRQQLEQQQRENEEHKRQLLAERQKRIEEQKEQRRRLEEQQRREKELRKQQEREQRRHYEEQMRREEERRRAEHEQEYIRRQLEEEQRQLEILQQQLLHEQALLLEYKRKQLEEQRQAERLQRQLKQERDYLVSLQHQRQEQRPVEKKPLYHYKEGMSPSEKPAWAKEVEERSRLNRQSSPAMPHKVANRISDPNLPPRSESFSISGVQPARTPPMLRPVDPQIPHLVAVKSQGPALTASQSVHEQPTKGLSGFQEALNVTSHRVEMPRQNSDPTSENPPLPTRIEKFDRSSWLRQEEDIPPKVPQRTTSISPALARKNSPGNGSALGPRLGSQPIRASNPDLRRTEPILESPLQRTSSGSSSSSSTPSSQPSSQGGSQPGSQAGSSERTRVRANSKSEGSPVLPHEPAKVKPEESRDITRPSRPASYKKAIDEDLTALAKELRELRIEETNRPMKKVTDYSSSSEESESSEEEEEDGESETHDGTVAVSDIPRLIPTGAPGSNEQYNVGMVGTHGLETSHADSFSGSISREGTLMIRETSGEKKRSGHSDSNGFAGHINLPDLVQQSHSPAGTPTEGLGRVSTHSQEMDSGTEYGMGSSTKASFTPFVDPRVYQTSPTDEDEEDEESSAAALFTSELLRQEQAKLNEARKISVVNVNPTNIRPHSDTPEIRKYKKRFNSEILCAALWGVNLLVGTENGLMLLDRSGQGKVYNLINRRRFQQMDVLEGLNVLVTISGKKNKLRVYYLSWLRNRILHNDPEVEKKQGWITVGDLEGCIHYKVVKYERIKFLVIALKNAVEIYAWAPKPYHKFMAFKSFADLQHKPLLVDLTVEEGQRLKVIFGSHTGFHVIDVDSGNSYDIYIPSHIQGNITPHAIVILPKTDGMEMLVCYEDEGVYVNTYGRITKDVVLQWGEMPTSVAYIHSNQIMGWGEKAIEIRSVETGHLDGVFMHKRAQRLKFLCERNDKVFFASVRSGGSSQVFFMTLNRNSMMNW

Row | Compound | IC50 [1, 3] [nM] | IC50 ([1]; read-out: TNIK_IC50) [nM] | IC50 [2] [nM]
1 | Cc1cccc(C)c1NC(=O)c1ccc(-c2c(-c3ccc(F)cc3)ncn2C2CCCCC2)o1 [Compound 60, 5-(1-cyclohexyl-4-(4-fluorophenyl)-1H-imidazol-5-yl)-N-(2,6-dimethylphenyl)furan-2-carboxamide] | 874 | 874 | > 1000
2 | CCc1ccccc1NC(=O)c1ccc(-c2c(-c3ccc(F)cc3)ncn2C2CCCCC2)o1 [Compound 61, 5-(1-cyclohexyl-4-(4-fluorophenyl)-1H-imidazol-5-yl)-N-(2-ethylphenyl)furan-2-carboxamide] | 164 | 164 | 247
3 | O=C(Nc1ccccc1F)c1ccc(-c2c(-c3ccc(F)cc3)ncn2C2CCCCC2)o1 [Compound 62, 5-(1-cyclohexyl-4-(4-fluorophenyl)-1H-imidazol-5-yl)-N-(2-fluorophenyl)furan-2-carboxamide] | 25 | 25 | 46.9
4 | O=C(Nc1cccc(F)c1)c1ccc(-c2c(-c3ccc(F)cc3)ncn2C2CCCCC2)o1 [Compound 63, 5-(1-cyclohexyl-4-(4-fluorophenyl)-1H-imidazol-5-yl)-N-(3-fluorophenyl)furan-2-carboxamide] | 108 | 108 | 127
5 | CCOc1ccc(NC(=O)c2ccc(-c3c(-c4ccc(F)cc4)ncn3C3CCCCC3)o2)cc1 [Compound 64, 5-(1-cyclohexyl-4-(4-fluorophenyl)-1H-imidazol-5-yl)-N-(4-ethoxyphenyl)furan-2-carboxamide] | 62 | 62 | 175
6 | Cc1ccccc1NC(=O)c1ccc(-c2c(-c3ccc(F)cc3)ncn2C2CCCCC2)o1 [Compound 65, 5-(1-cyclohexyl-4-(4-fluorophenyl)-1H-imidazol-5-yl)-N-(o-tolyl)furan-2-carboxamide] | 152 | 152 | 320
7 | Cc1ccc(NC(=O)c2ccc(-c3c(-c4ccc(F)cc4)ncn3C3CCCCC3)o2)cc1Cl [Compound 66, N-(3-chloro-4-methylphenyl)-5-(1-cyclohexyl-4-(4-fluorophenyl)-1H-imidazol-5-yl)furan-2-carboxamide] | 531 | 531 | > 1000
8 | Cc1ccc(NC(=O)c2ccc(-c3c(-c4ccc(F)cc4)ncn3C3CCCCC3)o2)c(C)c1 [Compound 67, 5-(1-cyclohexyl-4-(4-fluorophenyl)-1H-imidazol-5-yl)-N-(2,4-dimethylphenyl)furan-2-carboxamide] | 77 | 77 | 247
9 | Cc1ccc(NC(=O)c2ccc(-c3c(-c4ccc(F)cc4)ncn3C3CCCCC3)o2)c(Cl)c1 [Compound 68, N-(2-chloro-4-methylphenyl)-5-(1-cyclohexyl-4-(4-fluorophenyl)-1H-imidazol-5-yl)furan-2-carboxamide] | 19 | 19 | 71.7
10 | Cc1ccc(NC(=O)c2ccc(-c3c(-c4ccc(F)cc4)ncn3C3CCCCC3)o2)cc1C [Compound 69, 5-(1-cyclohexyl-4-(4-fluorophenyl)-1H-imidazol-5-yl)-N-(3,4-dimethylphenyl)furan-2-carboxamide] | 90 | 90 | 288
11 | Cc1cc(C)c(NC(=O)c2ccc(-c3c(-c4ccc(F)cc4)ncn3C3CCCCC3)o2)c(C)c1 [Compound 70, 5-(1-cyclohexyl-4-(4-fluorophenyl)-1H-imidazol-5-yl)-N-mesitylfuran-2-carboxamide] | 936 | 936 | > 1000
12 | CC(=O)c1cccc(NC(=O)c2ccc(-c3c(-c4ccc(F)cc4)ncn3C3CCCCC3)o2)c1 [Compound 71, N-(3-acetylphenyl)-5-(1-cyclohexyl-4-(4-fluorophenyl)-1H-imidazol-5-yl)furan-2-carboxamide] | 151 | 151 | 625
13 | CSc1cccc(NC(=O)c2ccc(-c3c(-c4ccc(F)cc4)ncn3C3CCCCC3)o2)c1 [Compound 72, 5-(1-cyclohexyl-4-(4-fluorophenyl)-1H-imidazol-5-yl)-N-(3-(methylthio)phenyl)furan-2-carboxamide] | 238 | 238 | 638
14 | CC(C)c1ccc(NC(=O)c2ccc(-c3c(-c4ccc(F)cc4)ncn3C3CCCCC3)o2)cc1 [Compound 73, 5-(1-cyclohexyl-4-(4-fluorophenyl)-1H-imidazol-5-yl)-N-(4-isopropylphenyl)furan-2-carboxamide] | 48 | 48 | 270
15 | CCc1cccc(NC(=O)c2ccc(-c3c(-c4ccc(F)cc4)ncn3C3CCCCC3)o2)c1 [Compound 74, 5-(1-cyclohexyl-4-(4-fluorophenyl)-1H-imidazol-5-yl)-N-(3-ethylphenyl)furan-2-carboxamide] | 326 | 326 | 300
16 | O=C(Nc1ccc(F)c(F)c1)c1ccc(-c2c(-c3ccc(F)cc3)ncn2C2CCCCC2)o1 [Compound 75, 5-(1-cyclohexyl-4-(4-fluorophenyl)-1H-imidazol-5-yl)-N-(3,4-difluorophenyl)furan-2-carboxamide] | 191 | 191 | 431
17 | O=C(Nc1ccc(Cl)cc1F)c1ccc(-c2c(-c3ccc(F)cc3)ncn2C2CCCCC2)o1 [Compound 76, N-(4-chloro-2-fluorophenyl)-5-(1-cyclohexyl-4-(4-fluorophenyl)-1H-imidazol-5-yl)furan-2-carboxamide] | 42 | 42 | 70.3
18 | COc1ccc(C)cc1NC(=O)c1ccc(-c2c(-c3ccc(F)cc3)ncn2C2CCCCC2)o1 [Compound 77, 5-(1-cyclohexyl-4-(4-fluorophenyl)-1H-imidazol-5-yl)-N-(2-methoxy-5-methylphenyl)furan-2-carboxamide] | 27 | 27 | 62.2
19 | CC(=O)Nc1ccc(NC(=O)c2ccc(-c3c(-c4ccc(F)cc4)ncn3C3CCCCC3)o2)cc1 [Compound 78, N-(4-acetamidophenyl)-5-(1-cyclohexyl-4-(4-fluorophenyl)-1H-imidazol-5-yl)furan-2-carboxamide] | 15 | 15 | 34.6
20 | COc1ccccc1NC(=O)c1ccc(-c2c(-c3ccc(F)cc3)ncn2C2CCCCC2)o1 [Compound 79, 5-(1-cyclohexyl-4-(4-fluorophenyl)-1H-imidazol-5-yl)-N-(2-methoxyphenyl)furan-2-carboxamide] | 16 | 16 | 22.2
21 | O=C(Nc1ccccc1F)c1ccc(-c2c(-c3ccc(F)cc3)ncn2CC2CCCN2)o1 (stereo not shown) [Compound 88, N-(2-fluorophenyl)-5-(4-(4-fluorophenyl)-1-(pyrrolidin-2-ylmethyl)-1H-imidazol-5-yl)furan-2-carboxamide] | 8450 | 8450 | 12400
22 | O=C(Nc1ccccc1F)c1ccc(-c2c(-c3cncnc3)ncn2C2CCCC2)o1 [Compound 94, 5-(1-cyclopentyl-4-(pyrimidin-5-yl)-1H-imidazol-5-yl)-N-(2-fluorophenyl)furan-2-carboxamide] |  | > 10000 | > 10000
23 | O=C(Nc1ccc(-c2c(-c3ccc(F)cc3)ncn2C2CCCC2)o1)c1ccccc1F [Compound 95, N-(5-(1-cyclopentyl-4-(4-fluorophenyl)-1H-imidazol-5-yl)furan-2-yl)-2-fluorobenzamide] |  | 480 | 547
